In patent publication US9657025B2, “Pyrazolopyrimidine compounds” (University Health Network, priority 2013, dated 2017):
Structures can show the parent of a compound that is named as a salt.

Tested on: Ovarian TICs (Ovarian 2393A)
Experiment: Ovarian tumor-initiating cell growth inhibition, Alamar Blue assay
Assay type: cell-based
Settings: 144 h, read-out: Tumor Initiating Cell GI50 Range Ovarian 2393A
Text: Materials and Methods: Non-tissue or tissure cultured treated T-75 flask and 96-well plates were purchased from VWR. Vitamin B-27 supplement, MEM NEAA (minimum essential medium non-essential amino acids), sodium pyruvate, L-glutamine, N2 supplement, penicillin-streptomycin and fungizone/amphotericin B were obtained from Invitrogen. Lipid mixture, heparin and EGF were purchased from Sigma; bFGF from BD Biosciences. Tumor Initiating Cells (TICs) from colon were routinely maintained using non-tissue cultured treated T-75 flasks in DMEM:F12 medium containing 0.2×B-27 supplement, 4 ug/ml heparin, 1×MEM NEAA, 1×sodium pyruvate, 1 mM glutamine, 10 pg/ul bFGF, 20 pg/ul EGF, 1× N2 supplement, lipid mixture, penicillin-streptomycin and fungizone/amphotericin B. Ovarian TICs were routinely maintained using tissue cultured treated T-75 flasks in DMEM:F12 medium containing 1×B-27 supplement, 4 ug/ml heparin, 20 pg/ul bFGF, 20 pg/ul EGF and penicillin-streptomycin. Assay Protocol: Compounds described herein were dissolved in DMSO and further diluted in cell culture medium for GI50 determination. […] Cell viability was assessed by Alamar Blue assay: 10 ul of Alamar Blue was added into each well. After 4 hours incubation at 37° C., fluorescence was recorded at excitation 544 and emission 590. GI50 (Growth inhibition) was calculated using GraphPad Prism 4.0 software. […]

Cc1cc(-c2cnn3c(NC[C@H]4C[C@@](C)(O)C4)cc(Oc4cccnc4)nc23)ccc1C(=O)NC1CC1 [Example A4, N-cyclopropyl-4-(7-((((1s,3s)-3-hydroxy-3-methylcyclobutyl)methyl)amino-5-(pyridin-3-yloxy)pyrazolo[1,5-a]pyrimidin-3-yl)-2-methylbenzamide hydrochloride and itsfreebase]
GI50: < 100 nM
